Source: US20190021321A1, “BROAD SPECTRUM ANTIMICROBIAL & ANTICOAGULANT COMPOSITION” (priority 2016, published 2019)
Like-named read-outs stand apart in the source and are kept apart here.

Assays:
P. aeruginosa [1] = assay: Rate kill assay, plate count (Part A synergy; Part B pH and D-Mannitol effect); format: cell-based
Experimental: In these assays the formulations are first exposed to organisms for a desired time (for the current formulations readings were taken at 1, 3 and 24 hours). Then a sample of the organisms and formulation mixture is serially diluted and plated to assess the log reduction. The organisms are allowed to grow and are checked for growth/log reduction after 24 hrs. The log reduction values obtained for individual components are compared with the combinations.
Each solution was then combined with P. aeruginosa and the log reduction of the P. aeruginosa was measured at 1, 3 and 24 hours.

C. albicans [2] = assay: as above; format: cell-based; details: D-Mannitol 0.73 wt % alone, both at pH 7.5 & 11
Experimental: The second set of experiments conducted, were “Rate Kill” assay. A rate kill assay can confirm whether combinations are synergistic or not. In these assays the formulations are first exposed to organisms for a desired time (for the current formulations readings were taken at 1, 3 and 24 hours). Then a sample of the organisms and formulation mixture is serially diluted and plated to assess the log reduction. The organisms are allowed to grow and are checked for growth/log reduction after 24 hrs. The log reduction values obtained for individual components are compared with the combinations.
The following solutions were prepared:
Each solution was then combined with C. albicans and the log reduction of the C. albicans was measured at 1, 3 and 24 hours.

S. aureus [3] = assay: as above; format: cell-based; details: D-Mannitol 0.73 wt % alone, both at pH 7.5 & 11
Experimental: The second set of experiments conducted, were “Rate Kill” assay. […] In these assays the formulations are first exposed to organisms for a desired time (for the current formulations readings were taken at 1, 3 and 24 hours). Then a sample of the organisms and formulation mixture is serially diluted and plated to assess the log reduction. The organisms are allowed to grow and are checked for growth/log reduction after 24 hrs. The log reduction values obtained for individual components are compared with the combinations.
Each solution was then combined with S. aureus and the log reduction of the S. aureus was measured at 1, 3 and 24 hours.

[4] = up to 3000 mg infused over 3 hours, daily, treatment of hyper-calcemia in humans; cited from earlier work
C. albicans [5] = assay: Synergy evaluation, checkerboard titration, macro-dilution; format: cell-based
Experimental: (§1) The first set of experiments conducted, were screening experiments using checkerboard titration strategy to assess if the combinations fall within a range having an Fractional Inhibitory Concentration (FIC) index value of ≤1. The method used was a NCCLS macro-dilution procedure.
(§2) The Checkerboard Titration method was used to assess the interactions between TEDTA and Ethanol. […] During this experiment, TEDTA and Ethanol were tested in the combinations to assess if the combinations have a Fractional Inhibitory Concentration (FIC) index of ≤1. The following concentrations were tested:
(§3) Fractional Inhibitory Concentration (FIC) is defined as the MIC of the compound in combination divided by the MIC of the compound alone. If the FIC index is ≤0.5, the combination is interpreted to be synergistic; <1 but >0.5—as partially synergistic; =1 as additive; >1 but <4 as indifferent; and ≥4 as antagonistic. In order to calculate the FIC index the following calculations are performed for compounds A and B:
(§4) FIC-A=(MIC of A in combination)/(MIC of A alone)
(§5) FIC-B=(MIC of B in combination)/(MIC of B alone)
(§6) FIC-combination=FIC-A+FIC-B
(§7) The following concentrations were tested:
(§8) The MIC-TEDTA (MIC of TEDTA in combination with Ethanol), a minimum concentration of TEDTA, while in combination with Ethanol, that inhibited the growth of C. albicans in MHB was found. In order to determine the MIC-Ethanol (MIC of Ethanol in combination with TEDTA), a minimum concentration of Ethanol, while in combination with TEDTA, that inhibited the growth of C. albicans in MHB was found.

S. aureus [6] = assay: Minimum inhibitory concentration (MIC) via macro-dilution method; details: for GROWTH: 24 hours, replicate columns; for MIC: S. aureus
P. aeruginosa [7] = assay: Synergy evaluation, checkerboard titration, macro-dilution; format: cell-based
Experimental: as §1, §2, §3, §4, §5, §6, §7
as §8, with “P. aeruginosa” for “C. albicans”

P. aeruginosa [8] = details: for GROWTH: 24 hours, replicate columns; for MIC: P. aeruginosa
Experimental: (§9) Experiments were conducted to assess the minimum inhibitory concentration (MIC) both for sodium salt of EDTA that comprises tetra-sodium EDTA and Ethanol. […] Clear solution indicates no growth.
(§10) The following solutions were prepared to evaluate the MIC values of sodium salt of EDTA that comprises tetra-sodium EDTA (TEDTA) and Ethanol.

C. albicans [9] = details: for MIC: C. albicans; for GROWTH: 24 hours, replicate columns
Experimental: as §9, §10

S. aureus [10] = assay: Synergy evaluation, checkerboard titration, macro-dilution; format: cell-based
Experimental: as §1, §2, §3, §4, §5, §6
In order to determine the MIC-Ethanol (MIC of Ethanol in combination with TEDTA), a minimum concentration of Ethanol, while in combination with TEDTA, which inhibited the growth of S. aureus in MHB was found.

[11] = S. aureus in Mueller Hinton Broth
[12] = TEDTA 0.06 WT % individual (0.25 MIC)
[13] = TEDTA 0.12 WT % individual (0.50 MIC)
[14] = TEDTA 0.24 WT % individual (1.00 MIC)
[15] = TEDTA alone, listed as Sodium Salt(s) of EDTA

For `OC[C@@H](O)[C@@H](O)[C@H](O)[C@H](O)CO` [D-Mannitol], the log reduction (P. aeruginosa [1]; P. aeruginosa, D-Mannitol 0.73 wt % alone, both at pH 7.5 & 11) was greater than 5 log, the “LOG REDUCTION AGAINST P. aeruginosa” value (P. aeruginosa [1]; footnote summary, D-mannitol alone, 0.73 wt %) was “D-MANNITOL EXHIBITS > 5 LOG REDUCTION AGAINST P. aeruginosa” and the log reduction (C. albicans [2]) was greater than 5 log. It also gave a log reduction (S. aureus [3]) greater than 4 log.
In the case of `O=C([O-])CN(CCN(CC(=O)[O-])CC(=O)O)CC(=O)O.[Na+].[Na+]` [EDTA disodium], the “tolerability of infused dose” value [4] is listed as “well tolerated”.
With `CCO` [ETHANOL, Ethanol] the “MIC-Ethanol (MIC of Ethanol in combination with TEDTA)” value (C. albicans [5]; C. albicans in MHB) was 0.781 % (v/v), the FIC-Ethanol (C. albicans [5]; C. albicans, 0.781/3.125) was 0.25 and the GROWTH (C. albicans [5]; ETHANOL 0.781 VOL % individual (0.25 MIC)) was “+VE”. For the same molecule, the GROWTH (C. albicans [5]; ETHANOL 1.563 VOL % individual (0.50 MIC)) was “+VE”, the GROWTH (C. albicans [5]; ETHANOL 3.125 VOL % individual (1.00 MIC)) was “−VE” and the GROWTH (S. aureus [6]; ETHANOL 3.13 VOL %) was “+VE”. For the same molecule, the GROWTH (S. aureus [6]; ETHANOL 6.25 VOL %) was “+VE”, the GROWTH (S. aureus [6]; ETHANOL 12.50 VOL %) was “+VE” and the GROWTH (S. aureus [6]; ETHANOL 25.00 VOL %) was “−VE”. For the same molecule, the GROWTH (S. aureus [6]; ETHANOL 50.00 VOL %) was “−VE”, the MIC (S. aureus [6]; ethanol alone) was 25 VOL % and the GROWTH (P. aeruginosa [7]; ETHANOL 1.563 VOL % individual (0.25 MIC)) was “+VE”. For the same molecule, the GROWTH (P. aeruginosa [7]; ETHANOL 3.125 VOL % individual (0.50 MIC)) was “+VE”, the GROWTH (P. aeruginosa [7]; ETHANOL 6.250 VOL % individual (1.00 MIC)) was “−VE” and the “MIC-Ethanol (MIC of Ethanol in combination with TEDTA)” value (P. aeruginosa [7]; P. aeruginosa in MHB) was 3.125 % (v/v). The FIC-Ethanol (P. aeruginosa [7]; P. aeruginosa, 3.125/6.25) was 0.5, the GROWTH (P. aeruginosa [8]; ETHANOL 3.13 VOL %) was “+VE” and the GROWTH (P. aeruginosa [8]; ETHANOL 6.25 VOL %) was “−VE”. For the same molecule, the GROWTH (P. aeruginosa [8]; ETHANOL 12.50 VOL %) was “−VE”, the GROWTH (P. aeruginosa [8]; ETHANOL 25.00 VOL %) was “−VE” and the GROWTH (P. aeruginosa [8]; ETHANOL 50.00 VOL %) was “−VE”. For the same molecule, the MIC (P. aeruginosa [8]; ethanol alone) was 6.25 VOL %, the MIC (C. albicans [9]; ethanol alone) was 3.125 VOL % and the GROWTH (C. albicans [9]; ETHANOL 3.125 VOL %) was “−VE”. For the same molecule, the GROWTH (C. albicans [9]; ETHANOL 6.25 VOL %) was “−VE”, the GROWTH (C. albicans [9]; ETHANOL 12.50 VOL %) was “−VE” and the GROWTH (C. albicans [9]; ETHANOL 25.00 VOL %) was “−VE”. The GROWTH (C. albicans [9]; ETHANOL 50.00 VOL %) was “−VE”, the GROWTH (S. aureus [10]; ETHANOL 6.250 VOL % individual (0.25 MIC)) was “+VE” and the GROWTH (S. aureus [10]; ETHANOL 12.500 VOL % individual (0.50 MIC)) was “+VE”. For the same molecule, the GROWTH (S. aureus [10]; ETHANOL 25.000 VOL % individual (1.00 MIC)) was “−VE”, the “MIC-ETH (MIC of Ethanol in combination with TEDTA)” value (S. aureus [10]; [11]) was 6.25 % (w/v) and the FIC-Ethanol (S. aureus [10]; S. aureus, 6.25/25) was 0.25.
For `O=C([O-])CN(CCN(CC(=O)[O-])CC(=O)[O-])CC(=O)[O-].[Na+].[Na+].[Na+].[Na+]` [TEDTA, tetra-sodium EDTA], the “MIC-TEDTA (MIC of TEDTA in combination with Ethanol)” value (shortened to “MIC-TEDTA”) (C. albicans [5]; C. albicans in MHB) was 0.06 % (w/v), the FIC-TEDTA (C. albicans [5]; C. albicans, 0.06/0.24) was 0.25 and the GROWTH (C. albicans [5]; [12]) was “−VE”. For the same molecule, the GROWTH (C. albicans [5]; [13]) was “−VE”, the GROWTH (C. albicans [5]; [14]) was “−VE” and the MIC (S. aureus [6]; [15]) was 0.24 WT %. The GROWTH (S. aureus [6]; TEDTA 0.015 WT %) was “+VE”, the GROWTH (S. aureus [6]; TEDTA 0.030 WT %) was “+VE” and the GROWTH (S. aureus [6]; TEDTA 0.060 WT %) was “+VE”. For the same molecule, the GROWTH (S. aureus [6]; TEDTA 0.120 WT %) was “+VE”, the GROWTH (S. aureus [6]; TEDTA 0.240 WT %) was “−VE” and the “MIC-TEDTA” value (P. aeruginosa [7]; P. aeruginosa in MHB) was 0.12 % (w/v). For the same molecule, the FIC-TEDTA (P. aeruginosa [7]; P. aeruginosa, 0.12/0.25) was 0.48, the GROWTH (P. aeruginosa [7]; TEDTA 0.06 WT % individual (0.24 MIC)) was “+VE” and the GROWTH (P. aeruginosa [7]; TEDTA 0.12 WT % individual (0.48 MIC)) was “+VE”. The GROWTH (P. aeruginosa [7]; TEDTA 0.24 WT % individual (0.96 MIC)) was “−VE”, the MIC (P. aeruginosa [8]; [15]) was 0.24 WT % and the GROWTH (P. aeruginosa [8]; TEDTA 0.125 WT %) was “+VE”. The GROWTH (P. aeruginosa [8]; TEDTA 0.250 WT %) was “−VE”, the GROWTH (P. aeruginosa [8]; TEDTA 0.500 WT %) was “−VE” and the GROWTH (P. aeruginosa [8]; TEDTA 1.000 WT %) was “−VE”. For the same molecule, the GROWTH (P. aeruginosa [8]; TEDTA 1.500 WT %) was “−VE”, the MIC (C. albicans [9]; [15]) was 0.24 WT % and the GROWTH (C. albicans [9]; TEDTA 0.015 WT %) was “+VE”. For the same molecule, the GROWTH (C. albicans [9]; TEDTA 0.030 WT %) was “+VE”, the GROWTH (C. albicans [9]; TEDTA 0.060 WT %) was “+VE” and the GROWTH (C. albicans [9]; TEDTA 0.120 WT %) was “+VE”. For the same molecule, the GROWTH (C. albicans [9]; TEDTA 0.240 WT %) was “−VE”, the “MIC-TEDTA” value (S. aureus [10]; [11]) was 0.06 % (w/v) and the FIC-TEDTA (S. aureus [10]; S. aureus, 0.06/0.24) was 0.25. The GROWTH (S. aureus [10]; [12]) was “+VE”, the GROWTH (S. aureus [10]; [13]) was “+VE” and the GROWTH (S. aureus [10]; [14]) was “−VE”.
